{
  "source": "paper doi:10.1101/630459v1",
  "about": "(bioRxiv, 2019)",
  "type_in_all_cases": "in vivo, BALB/cAnNRj mice",
  "key": {"Serum parameter analysis": {"assay": "Serum parameter analysis"}, "Blood parameter analysis": {"assay": "Blood parameter analysis"}, "active caspase-3": {"test_system": "active caspase-3", "assay": "Indirect immunohistochemistry of active caspase-3 in organ cryosections"}, "[1]": {"conditions": "doxorubicin 4 mg/kg BW i.p., d8, mean, n = 3"}, "[2]": {"conditions": "doxorubicin 4 mg/kg BW i.p., d15, mean, n = 4"}, "[3]": {"conditions": "doxorubicin 4 mg/kg BW i.p. day 0, 7, 14, day 15, n = 3, mean ± SD"}, "[4]": {"conditions": "doxorubicin 4 mg/kg BW i.p. day 0, 7, 14, day 15, n = 4, mean ± SD"}, "[5]": {"conditions": "cisplatin 20 mg/kg BW i.p. once, d1, mean, n = 3"}, "[6]": {"conditions": "cisplatin 20 mg/kg BW i.p. once, d2, mean, n = 8"}, "[7]": {"conditions": "cisplatin 20 mg/kg BW i.p. once, d2, mean, n = 9"}, "[8]": {"conditions": "cisplatin 20 mg/kg BW i.p. once, d3, mean, n = 4"}, "[9]": {"conditions": "cisplatin 20 mg/kg BW i.p. once, d2, mean, n = 12"}, "[10]": {"conditions": "cisplatin 20 mg/kg BW i.p. once, d3, mean, n = 5"}, "[11]": {"conditions": "cisplatin 20 mg/kg BW i.p. once, day 3, n = 3, mean ± SD"}, "[12]": {"conditions": "busulfan 18.8 mg/kg i.p., d3, mean, n = 6"}, "[13]": {"conditions": "busulfan 18.8 mg/kg i.p., d5, mean, n = 10"}, "[14]": {"conditions": "busulfan 18.8 mg/kg i.p., d5, mean, n = 11"}, "[15]": {"conditions": "busulfan 18.8 mg/kg i.p. day 0, 2, 4, day 5, n = 5, mean ± SD"}},
  "note": "Marks after values point to notes of the source that are not given here.",
  "data": [
    {"compound": "COc1cccc2c1C(=O)c1c(O)c3c(c(O)c1C2=O)C[C@@](O)(C(=O)CO)C[C@@H]3O[C@H]1C[C@H](N)[C@H](O)[C@H](C)O1", "note": "[Doxorubicin]", "values": [
      {"measurement": "ALT", "setting": "Serum parameter analysis; [1]", "value": "90.33** U/L"},
      {"measurement": "AST", "setting": "Serum parameter analysis; [1]", "value": 94.67, "unit": "U/L"},
      {"measurement": "CK", "setting": "Serum parameter analysis; [1]", "value": 109.7, "unit": "U/L"},
      {"measurement": "Creatinine", "setting": "Serum parameter analysis; [1]", "value": "15.33* µmol/L"},
      {"measurement": "Urea", "setting": "Serum parameter analysis; [1]", "value": 7.73, "unit": "mmol/L"},
      {"measurement": "ALT", "setting": "Serum parameter analysis; [2]", "value": 52.25, "unit": "U/L"},
      {"measurement": "AST", "setting": "Serum parameter analysis; [2]", "value": 96.5, "unit": "U/L"},
      {"measurement": "CK", "setting": "Serum parameter analysis; [2]", "value": "195.3* U/L"},
      {"measurement": "Creatinine", "setting": "Serum parameter analysis; [2]", "value": "16.25** µmol/L"},
      {"measurement": "Urea", "setting": "Serum parameter analysis; [2]", "value": 7, "unit": "mmol/L"},
      {"measurement": "HCT", "setting": "Blood parameter analysis; [1]", "value": 41.2, "unit": "%"},
      {"measurement": "PLT", "setting": "Blood parameter analysis; [1]", "value": "1011 10^3/µl"},
      {"measurement": "RBC", "setting": "Blood parameter analysis; [1]", "value": "9.62 10^6/µl"},
      {"measurement": "WBC", "setting": "Blood parameter analysis; [1]", "value": "9.2 10^3/µl"},
      {"measurement": "HCT", "setting": "Blood parameter analysis; [2]", "value": "34.1*** %"},
      {"measurement": "PLT", "setting": "Blood parameter analysis; [2]", "value": "1.106e+06", "unit": "µL⁻¹"},
      {"measurement": "RBC", "setting": "Blood parameter analysis; [2]", "value": "7.98*** 10^6/µl"},
      {"measurement": "WBC", "setting": "Blood parameter analysis; [2]", "value": "6.5 10^3/µl"},
      {"measurement": "caspase-3 activation, liver", "setting": "active caspase-3; [3]", "value": "3.5 ± 1.5", "unit": "% area"},
      {"measurement": "caspase-3 activation, lungs", "setting": "active caspase-3; [3]", "value": "0.7 ± 0.1", "unit": "% area"},
      {"measurement": "caspase-3 activation, heart", "setting": "active caspase-3; [4]", "value": "2.2 ± 0.7", "unit": "% area"},
      {"measurement": "caspase-3 activation, kidneys", "setting": "active caspase-3; [4]", "value": "1.1 ± 0.3", "unit": "% area"},
      {"measurement": "caspase-3 activation, lungs", "setting": "active caspase-3; doxorubicin 4 mg/kg BW i.p., day 8, n = 3, mean ± SD", "value": "0.6 ± 0.2", "unit": "% area"}
    ]},
    {"compound": "N.N.[Cl][Pt][Cl]", "note": "[Cisplatin]", "values": [
      {"measurement": "ALT", "setting": "Serum parameter analysis; [5]", "value": 58, "unit": "U/L"},
      {"measurement": "AST", "setting": "Serum parameter analysis; [5]", "value": 122, "unit": "U/L"},
      {"measurement": "CK", "setting": "Serum parameter analysis; [5]", "value": 180.7, "unit": "U/L"},
      {"measurement": "Creatinine", "setting": "Serum parameter analysis; [5]", "value": 16.67, "unit": "µmol/L"},
      {"measurement": "Urea", "setting": "Serum parameter analysis; [5]", "value": 6.32, "unit": "mmol/L"},
      {"measurement": "ALT", "setting": "Serum parameter analysis; [6]", "value": 88.88, "unit": "U/L"},
      {"measurement": "AST", "setting": "Serum parameter analysis; [6]", "value": "200* U/L"},
      {"measurement": "CK", "setting": "Serum parameter analysis; [7]", "value": 372.6, "unit": "U/L"},
      {"measurement": "Creatinine", "setting": "Serum parameter analysis; [7]", "value": "27.67** µmol/L"},
      {"measurement": "Urea", "setting": "Serum parameter analysis; [7]", "value": "15.09* mmol/L"},
      {"measurement": "ALT", "setting": "Serum parameter analysis; [8]", "value": 63.5, "unit": "U/L"},
      {"measurement": "AST", "setting": "Serum parameter analysis; [8]", "value": 183.8, "unit": "U/L"},
      {"measurement": "CK", "setting": "Serum parameter analysis; [8]", "value": "586.3* U/L"},
      {"measurement": "Creatinine", "setting": "Serum parameter analysis; [8]", "value": 22.25, "unit": "µmol/L"},
      {"measurement": "Urea", "setting": "Serum parameter analysis; [8]", "value": 11.08, "unit": "mmol/L"},
      {"measurement": "HCT", "setting": "Blood parameter analysis; [5]", "value": "43.5** %"},
      {"measurement": "HGB", "setting": "Blood parameter analysis; [5]", "value": "15.9* g/dL"},
      {"measurement": "PLT", "setting": "Blood parameter analysis; [5]", "value": "797 10^3/µl"},
      {"measurement": "RBC", "setting": "Blood parameter analysis; [5]", "value": "10.23 10^6/µl"},
      {"measurement": "WBC", "setting": "Blood parameter analysis; [5]", "value": "5.63 10^3/µl"},
      {"measurement": "HCT", "setting": "Blood parameter analysis; [9]", "value": 40.5, "unit": "%"},
      {"measurement": "HGB", "setting": "Blood parameter analysis; [9]", "value": 15.08, "unit": "g/dL"},
      {"measurement": "RBC", "setting": "Blood parameter analysis; [9]", "value": "9.45 10^6/µl"},
      {"measurement": "WBC", "setting": "Blood parameter analysis; [9]", "value": "4.85** 10^3/µl"},
      {"measurement": "HCT", "setting": "Blood parameter analysis; [10]", "value": 41.6, "unit": "%"},
      {"measurement": "HGB", "setting": "Blood parameter analysis; [10]", "value": 15.38, "unit": "g/dL"},
      {"measurement": "PLT", "setting": "Blood parameter analysis; [10]", "value": "1147** 10^3/µl"},
      {"measurement": "RBC", "setting": "Blood parameter analysis; [10]", "value": "9.81e+06", "unit": "µL⁻¹"},
      {"measurement": "WBC", "setting": "Blood parameter analysis; [10]", "value": "3.68** 10^3/µl"},
      {"measurement": "caspase-3 activation, kidneys", "setting": "active caspase-3; cisplatin 20 mg/kg BW i.p. once, day 2, n = 3, mean ± SD", "value": "1.0 ± 0.1", "unit": "% area"},
      {"measurement": "caspase-3 activation, liver", "setting": "active caspase-3; [11]", "value": "4.3 ± 0.7", "unit": "% area"},
      {"measurement": "caspase-3 activation, lungs", "setting": "active caspase-3; [11]", "value": "0.5 ± 0.1", "unit": "% area"},
      {"measurement": "caspase-3 activation, spleen", "setting": "active caspase-3; cisplatin 20 mg/kg BW i.p. once, day 3, n = 4, mean ± SD", "value": "10.5 ± 4.8", "unit": "% area"}
    ]},
    {"compound": "CS(=O)(=O)OCCCCOS(C)(=O)=O", "note": "[Busulfan]", "values": [
      {"measurement": "ALT", "setting": "Serum parameter analysis; [12]", "value": 55.33, "unit": "U/L"},
      {"measurement": "AST", "setting": "Serum parameter analysis; [12]", "value": 82.5, "unit": "U/L"},
      {"measurement": "CK", "setting": "Serum parameter analysis; [12]", "value": 141.5, "unit": "U/L"},
      {"measurement": "Creatinine", "setting": "Serum parameter analysis; [12]", "value": 11.17, "unit": "µmol/L"},
      {"measurement": "Urea", "setting": "Serum parameter analysis; [12]", "value": 7.81, "unit": "mmol/L"},
      {"measurement": "ALT", "setting": "Serum parameter analysis; [13]", "value": 87.1, "unit": "U/L"},
      {"measurement": "AST", "setting": "Serum parameter analysis; [13]", "value": 84.4, "unit": "U/L"},
      {"measurement": "CK", "setting": "Serum parameter analysis; [13]", "value": 160.2, "unit": "U/L"},
      {"measurement": "Creatinine", "setting": "Serum parameter analysis; [13]", "value": 12.6, "unit": "µmol/L"},
      {"measurement": "Urea", "setting": "Serum parameter analysis; [13]", "value": 7.19, "unit": "mmol/L"},
      {"measurement": "HCT", "setting": "Blood parameter analysis; [12]", "value": 42.0, "unit": "%"},
      {"measurement": "HGB", "setting": "Blood parameter analysis; [12]", "value": 15.2, "unit": "g/dL"},
      {"measurement": "PLT", "setting": "Blood parameter analysis; [12]", "value": "849.3 10^3/µl"},
      {"measurement": "RBC", "setting": "Blood parameter analysis; [12]", "value": "9.79 10^6/µl"},
      {"measurement": "WBC", "setting": "Blood parameter analysis; [12]", "value": 4730, "unit": "µL⁻¹"},
      {"measurement": "HCT", "setting": "Blood parameter analysis; [14]", "value": 35.2, "unit": "%"},
      {"measurement": "HGB", "setting": "Blood parameter analysis; [14]", "value": 13.3, "unit": "g/dL"},
      {"measurement": "PLT", "setting": "Blood parameter analysis; [14]", "value": "1.175e+06", "unit": "µL⁻¹"},
      {"measurement": "RBC", "setting": "Blood parameter analysis; [14]", "value": "8.32 10^6/µl"},
      {"measurement": "WBC", "setting": "Blood parameter analysis; [14]", "value": 4940, "unit": "µL⁻¹"},
      {"measurement": "caspase-3 activation, liver", "setting": "active caspase-3; [15]", "value": "3.0 ± 0.1", "unit": "% area"},
      {"measurement": "caspase-3 activation, lungs", "setting": "active caspase-3; [15]", "value": "0.4 ± 0.1", "unit": "% area"}
    ]}
  ]
}
